Source: patent US20190263796A1, “LIM KINASE INHIBITORS, PHARMACEUTICAL COMPOSITION AND METHOD OF USE IN LIMK-MEDIATED DISEASES” (CELLIPSE, priority 2016, published 2019)
Read-outs that look alike come from different tables or passages of the source.

How the values were obtained:
P-MEK/Total MEK [1] = assay: Western blot MEK1 phosphorylation, HL-60; format: cell-based; details: Homo sapiens, HL-60, 2 h, read-out: IC50 P-MEK/Total MEK
Procedure: (§1) HL-60 cell line was originally purchased from the Leibniz-Institut Deutsche Sammlung von Mikroorganismen und Zellkulturen GmbH (DSMZ). HL-60 cells are cultured in RPMI 1640 10% (v/v) FBS supplemented with 100 U/mL^−1 penicillin, 0.1 mg·mL^−1 streptomycin (PAN Biotech P06-07100). Cells were maintained at 37° C. with 5% CO2.
(§2) In a 6 wells plate (Falcon 353046), 2·10^6 cells in 1.5 mL medium are treated for 2 h with compounds. Cells are then collected and cell lysis is performed at 4° C. using RIPA buffer supplemented with protease inhibitors cocktail (Sigma-Aldrich P8340) and phosphatase inhibitors cocktail (Sigma-Aldrich P5726). Following centrifugation 30 min 15000 g 4° C., supernatants are mixed with Laemmli buffer and denaturation is performed by heating 5 min 95° C. 10 μL of samples are subjected to electrophoresis on 15% SDS-PAGE. After electro-transfer (Mini Transblot, Bio-Rad), the PVDF membrane (Merck-Millipore Immobilon P IPVH00010) is blocked with Tris Buffered Saline, pH 7.4 (TBS) with 0.1% Tween 20 and 5% BSA for 1 h at room temperature under agitation. The membrane was rinsed 3 times 10 min at room temperature under agitation with TBS, 0.1% Tween-20 (TBST) and then 1 h at room temperature with anti-phospho-Ser218/222-MEK1 (Merck-Millipore 07-461, 1/1000 dilution) antibody or anti-MEK1 (Merck-Millipore 07-641, 1/1000 dilution) diluted in TBS, 0.1% Tween 20 and 1% BSA. The membrane is then rinsed 3 times 10 min RT under agitation in TBST and incubated for 1 h with anti-rabbit secondary antibody, horseradish peroxidase conjugated (Jackson Immunoresearch #711-036-152) under agitation at room temperature. After three washes 10 min at room temperature in TBST, the detection of total or phosphorylated cofilin was performed using chemiluminescence kit ECL™ Plus (GE Healthcare RPN2132). For each concentration of compound, ratio between phosphorylated cofilin and total cofilin is determined. This ratio is then expressed as percentage of control ratio (i.e., ratio from DMSO treated cells). IC50 P-MEK/Total MEK is then determined.
(§3) Selectivity ratios are calculated by dividing the IC50 P-MEK/Total MEK value (μM) by the IC50 Phospho-Ser3-Cofilin/Total Cofilin value (μM).

P-MEK/Total MEK [2] = assay: Western blot MEK1 phosphorylation, MOLM-14; format: cell-based; details: read-out: IC50 P-MEK/Total MEK; MOLM-14 cells; 2 h
Procedure: (§4) MOLM-14 cell line was originally purchased from the American Type Culture Collection (ATCC). MOLM-14 cells are cultured in MEM alpha 10% (v/v) FBS supplemented with 100 U/mL^−1 penicillin, 0.1 mg·mL^−1 streptomycin (PAN Biotech P06-07100). Cells were maintained at 37° C. with 5% CO2.
as §2, §3

[3] = system: Phospho-Ser3-Cofilin/Total Cofilin; assay: Western blot cofilin phosphorylation, HL-60; format: cell-based; details: Homo sapiens; HL-60 cells; 2 h
Procedure: as §1
as §2, with “1 h RT under agitation.” for “1 h at room temperature under agitation.”, “temperature with anti-phospho-Ser3-cofilin (Cell Signaling Technology #3313, 1/1000 dilution)” for “temperature with anti-phospho-Ser218/222-MEK1 (Merck-Millipore 07-461, 1/1000 dilution)”, “antibody or anti-cofilin (Cell Signaling Technology #3312, 1/1000 dilution)” for “antibody or anti-MEK1 (Merck-Millipore 07-641, 1/1000 dilution)”, “10 min at room temperature under agitation” for “10 min RT under agitation”, “cells). IC50 Phospho-Ser3-Cofilin/Total Cofilin is then” for “cells). IC50 P-MEK/Total MEK is then”

P-MEK/Total MEK [4] = assay: Western blot MEK1 phosphorylation, Kasumi-1; format: cell-based; details: Homo sapiens, Kasumi 1, 2 h, read-out: IC50 P-MEK/Total MEK
Procedure: Cells were maintained at 37° C. with 5% CO2.
as §2, §3

[5] = system: Phospho-Ser3-Cofilin/Total Cofilin; assay: Western blot cofilin phosphorylation, MOLM-14; format: cell-based; details: MOLM-14 cells; 2 h
Procedure: as §4
as §2, with “1 h RT under agitation.” for “1 h at room temperature under agitation.”, “temperature with anti-phospho-Ser3-cofilin (Cell Signaling Technology #3313, 1/1000 dilution)” for “temperature with anti-phospho-Ser218/222-MEK1 (Merck-Millipore 07-461, 1/1000 dilution)”, “antibody or anti-cofilin (Cell Signaling Technology #3312, 1/1000 dilution)” for “antibody or anti-MEK1 (Merck-Millipore 07-641, 1/1000 dilution)”, “10 min at room temperature under agitation” for “10 min RT under agitation”, “cells). IC50 Phospho-Ser3-Cofilin/Total Cofilin is then” for “cells). IC50 P-MEK/Total MEK is then”

P-MEK/Total MEK [6] = assay: Western blot MEK1 phosphorylation, MOLM-13; format: cell-based; details: read-out: IC50 P-MEK/Total MEK; MOLM-13 cells; 2 h
Procedure: (§5) MOLM-13 cell line was originally purchased from the Leibniz-Institut Deutsche Sammlung von Mikroorganismen und Zellkulturen GmbH (DSMZ). MOLM-13 cells are cultured in RPMI 1640 20% (v/v) FBS supplemented with 100 U/mL^−1 penicillin, 0.1 mg·mL^−1 streptomycin (PAN Biotech P06-07100). Cells were maintained at 37° C. with 5% CO2.
as §2, §3

[7] = system: Phospho-Ser3-Cofilin/Total Cofilin; assay: Western blot cofilin phosphorylation, MOLM-13; format: cell-based; details: MOLM-13 cells; 2 h
Procedure: as §5
as §2, with “1 h RT under agitation.” for “1 h at room temperature under agitation.”, “temperature with anti-phospho-Ser3-cofilin (Cell Signaling Technology #3313, 1/1000 dilution)” for “temperature with anti-phospho-Ser218/222-MEK1 (Merck-Millipore 07-461, 1/1000 dilution)”, “antibody or anti-cofilin (Cell Signaling Technology #3312, 1/1000 dilution)” for “antibody or anti-MEK1 (Merck-Millipore 07-641, 1/1000 dilution)”, “10 min at room temperature under agitation” for “10 min RT under agitation”, “cells). IC50 Phospho-Ser3-Cofilin/Total Cofilin is then” for “cells). IC50 P-MEK/Total MEK is then”

[8] = system: Phospho-Ser3-Cofilin/Total Cofilin; assay: Western blot cofilin phosphorylation, Kasumi-1; format: cell-based; details: Homo sapiens; Kasumi-1 cells; 2 h
Procedure: Kasumi-1 cell line was originally purchased from the American Type Culture Collection (ATCC). Kasumi-1 cells are cultured in RPMI 1640 20% (v/v) FBS supplemented with 100 U/mL^−1 penicillin, 0.1 mg·mL^−1 streptomycin (PAN Biotech P06-07100). Cells were maintained at 37° C. with 5% CO2.
In a 6 wells plate (Falcon 353046), 2·10^6 cells in 1.5 mL medium are treated for 2 h with compounds. Cells are then collected and cell lysis is performed at 4° C. using RIPA buffer supplemented with protease inhibitors cocktail (Sigma-Aldrich P8340) and phosphatase inhibitors cocktail (Sigma-Aldrich P5726). Following centrifugation 30 min 15000 g 4° C., supernatants are mixed with Laemmli buffer and denaturation is performed by heating 5 min 95° C. 10 μL of samples are subjected to electrophoresis on 15% SDS-PAGE. After electro-transfer (Mini Transblot, Bio-Rad), the PVDF membrane (Merck-Millipore Immobilon P IPVH00010) is blocked with Tris Buffered Saline, pH 7.4 (TBS) with 0.1% Tween 20 and 5% BSA for 1 h RT under agitation. […] For each concentration of compound, ratio between phosphorylated cofilin and total cofilin is determined. This ratio is then expressed as percentage of control ratio (i.e., ratio from DMSO treated cells). IC50 Phospho-Ser3-Cofilin/Total Cofilin is then determined.

LIMK1(h) = LIMK1(h) (Homo sapiens, UniProt P53667); assay: LIMK1 kinase assay (Eurofins Panlabs, radiometric); format: biochemical; design: purchased Eurofins Panlabs Inc. (contract assay service); details: 15 μM ATP, read-out: IC50 LIMK1
Sequence of LIMK1(h) (P53667 whole entry): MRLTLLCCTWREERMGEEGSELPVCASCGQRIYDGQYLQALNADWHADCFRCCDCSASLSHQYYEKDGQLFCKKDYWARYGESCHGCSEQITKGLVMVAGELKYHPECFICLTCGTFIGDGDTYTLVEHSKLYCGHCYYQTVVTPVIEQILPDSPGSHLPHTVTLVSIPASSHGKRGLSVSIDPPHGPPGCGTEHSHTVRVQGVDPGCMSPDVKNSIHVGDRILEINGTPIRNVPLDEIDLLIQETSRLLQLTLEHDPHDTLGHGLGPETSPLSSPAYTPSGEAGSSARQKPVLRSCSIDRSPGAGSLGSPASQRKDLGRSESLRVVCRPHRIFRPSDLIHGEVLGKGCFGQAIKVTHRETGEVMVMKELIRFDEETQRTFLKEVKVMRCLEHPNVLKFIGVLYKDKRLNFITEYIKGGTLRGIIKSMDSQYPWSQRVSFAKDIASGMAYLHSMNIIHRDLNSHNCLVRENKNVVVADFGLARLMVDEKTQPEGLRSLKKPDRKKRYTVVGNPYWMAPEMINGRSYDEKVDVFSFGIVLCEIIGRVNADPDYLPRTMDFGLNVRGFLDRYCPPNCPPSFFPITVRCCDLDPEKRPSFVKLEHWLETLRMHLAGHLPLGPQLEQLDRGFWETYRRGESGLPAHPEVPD
Procedure: Compounds were tested in a LIMK1 assay performed by Eurofins Panlabs Inc. LIMK1 (h) is incubated with 8 mM MOPS pH 7.0, 0.2 mM EDTA, 0.6 mg/mL cofilin, 10 mM Magnesium acetate and [gamma-33P]-ATP. The reaction is initiated by the addition of the Mg/ATP mix. After incubation for 40 min at room temperature, the reaction is stopped by the addition of phosphoric acid to a concentration of 0.5%. […] IC50 LIMK1 is then determined.

[9] = system: Phospho-Ser3-Cofilin/Total Cofilin; assay: Western blot of cellular cofilin phosphorylation status, MV4-11 (II.4); format: cell-based; details: Homo sapiens; MV4-11 cells; 2 h treatment
Procedure: MV4-11 cell line was originally purchased from the American Type Culture Collection (ATCC). MV4-11 cells are cultured in RPMI 1640 10% (v/v) FBS supplemented with 100 U/mL^−1 penicillin, 0.1 mg·mL^−1 streptomycin (PAN Biotech P06-07100) and 2 mM Glutamine (Sigma-Aldrich 59202C). Cells were maintained at 37° C. with 5% CO2.
In a 6 wells plate (Falcon 353046), 2·10^6 cells in 1.5 mL medium are treated for 2 h with compounds. Cells are then collected and cell lysis is performed at 4° C. using RIPA buffer supplemented with protease inhibitors cocktail (Sigma-Aldrich P8340) and phosphatase inhibitors cocktail (Sigma-Aldrich P5726). Following centrifugation 30 min 15000 g 4° C., supernatants are mixed with Laemmli buffer and denaturation is performed by heating 5 min 95° C. 10 μL of samples are subjected to electrophoresis on 15% SDS-PAGE. After electro-transfer (Mini Transblot, Bio-Rad), the PVDF membrane (Merck-Millipore Immobilon P IPVH00010) is blocked with Tris Buffered Saline, pH 7.4 (TBS) with 0.1% Tween 20 and 5% BSA for 1 h RT under agitation. The membrane was rinsed 3 times 10 min RT under agitation with TBS, 0.1% Tween-20 (TBST) and then 1 h RT with anti-phospho-Ser3-cofilin (Cell Signaling Technology #3313, 1/1000 dilution) antibody or anti-cofilin (Cell Signaling Technology #3312, 1/1000 dilution) diluted in TBS, 0.1% Tween 20 and 1% BSA. The membrane is then rinsed 3 times 10 min RT under agitation in TBST and incubated for 1 hour with anti-rabbit secondary antibody, horseradish peroxidase conjugated (Jackson Immunoresearch #711-036-152) under agitation at room temperature. After three washes 10 min RT in TBST, the detection of total or phosphorylated cofilin was performed using chemiluminescence kit ECL™ Plus (GE Healthcare RPN2132). For each concentration of compound, ratio between phosphorylated cofilin and total cofilin is determined. This ratio is then expressed as percentage of control ratio (i.e ratio from DMSO treated cells). IC50 is then determined.

B-Raf(h) = B-Raf(h) (Homo sapiens, UniProt P15056); assay: B-Raf kinase assay (Eurofins Panlabs, radiometric); format: biochemical; design: purchased Eurofins Panlabs Inc. (contract assay service); details: Table 8; for IC50: 120 μM ATP, read-out: IC50 B-Raf; for Selectivity ratio: IC50 B-Raf (nM) divided by IC50 LIMK1 (nM)
Sequence of B-Raf(h) (P15056 whole entry): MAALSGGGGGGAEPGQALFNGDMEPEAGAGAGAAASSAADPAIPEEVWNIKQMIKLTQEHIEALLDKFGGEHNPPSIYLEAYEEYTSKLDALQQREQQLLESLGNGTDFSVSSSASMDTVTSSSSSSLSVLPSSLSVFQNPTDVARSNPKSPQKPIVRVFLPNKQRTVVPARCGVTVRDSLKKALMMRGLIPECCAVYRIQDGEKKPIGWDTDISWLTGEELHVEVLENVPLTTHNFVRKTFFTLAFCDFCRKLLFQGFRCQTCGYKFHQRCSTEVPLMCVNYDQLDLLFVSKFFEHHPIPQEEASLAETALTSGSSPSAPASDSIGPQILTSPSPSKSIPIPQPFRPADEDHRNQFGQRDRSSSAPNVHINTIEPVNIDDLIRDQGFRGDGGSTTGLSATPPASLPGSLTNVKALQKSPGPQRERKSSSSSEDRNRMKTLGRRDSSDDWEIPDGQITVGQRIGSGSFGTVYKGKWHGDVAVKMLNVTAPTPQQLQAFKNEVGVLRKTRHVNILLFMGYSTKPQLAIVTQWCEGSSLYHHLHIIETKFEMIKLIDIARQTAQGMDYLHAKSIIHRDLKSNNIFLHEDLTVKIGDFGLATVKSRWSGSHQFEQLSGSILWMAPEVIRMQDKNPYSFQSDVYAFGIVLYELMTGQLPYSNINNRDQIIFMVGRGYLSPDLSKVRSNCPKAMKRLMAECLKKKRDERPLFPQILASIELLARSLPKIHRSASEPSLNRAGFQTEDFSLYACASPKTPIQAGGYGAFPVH
Procedure: IC50 B-Raf is then determined.
Selectivity ratios are calculated by dividing the IC50 B-Raf (nM) by the IC50 LIMK1 (nM).

IC50 (LIMK1(h); Table 2) [nM] | IC50 [9] [nM] | IC50 (B-Raf(h)) [nM] | Selectivity ratio (B-Raf(h)) | Compound | other results
500 to 5000 | 200 to 1000 | – | – | CC(C)(C)c1nc(-c2cccc(NS(=O)(=O)c3c(F)cccc3F)c2F)c(-c2ncnc3[nH]ccc23)s1 [Compound 7, N-(3-(2-(tert-butyl)-5-(7H-pyrrolo[2,3-d]pyrimidin-4-yl)thiazol-4-yl)-2-fluorophenyl)-2,6-difluorobenzenesulfonamide] | –
100 to 500 | 200 to 1000 | – | – | CC(C)(C)c1nc(-c2cccc(NS(=O)(=O)CCC(F)(F)F)c2F)c(-c2ccnc(Nc3ccccc3)n2)s1 [Compound 4, N-(3-(2-(tert-butyl)-5-(2-(phenylamino)pyrimidin-4-yl)thiazol-4-yl)-2-fluorophenyl)-3,3,3-trifluoropropane-1-sulfonamide] | –
100 to 500 | – | – | – | CC(C)(C)c1nc(-c2cccc(NS(=O)(=O)C3CC3)c2F)c(-c2ccnc(Nc3ccccc3)n2)s1 [Compound 10, N-(3-(2-(tert-butyl)-5-(2-(phenylamino)pyrimidin-4-yl)thiazol-4-yl)-2-fluorophenyl)cyclopropanesulfonamide] | –

The next lines start with the compound.

Compound | IC50 (LIMK1(h); Table 2) [nM] | IC50 [9] [nM] | IC50 (B-Raf(h)) [nM] | Selectivity ratio (B-Raf(h)) | other results
CNC(=O)Cc1nc(-c2cccc(NS(=O)(=O)c3c(F)cccc3F)c2F)c(-c2ccnc(Nc3ccccc3)n2)s1 [9 (Na)] | – | – | – | – | IC50 (P-MEK/Total MEK [1]): > 1000 nM; IC50 (P-MEK/Total MEK [2]): 200 to 1000 nM; IC50 [3]: 200 to 1000 nM; IC50 (P-MEK/Total MEK [4]): > 1000 nM; IC50 [5]: < 200 nM; IC50 (P-MEK/Total MEK [6]): > 1000 nM; IC50 [7]: 200 to 1000 nM; IC50 [8]: 200 to 1000 nM
CC(C)(C)OC(=O)Nc1cccc(-c2nc(C(C)(C)C)sc2-c2ccnc(Nc3ccccc3)n2)c1F [Compound 6, tert-butyl (3-(2-(tert-butyl)-5-(2-(phenylamino)pyrimidin-4-yl)thiazol-4-yl)-2-fluorophenyl)carbamate] | 500 to 5000 | > 1000 | 500 to 5000 | 16 | –
CCOC(=O)Cc1nc(-c2cccc(NS(=O)(=O)c3c(F)cccc3F)c2F)c(-c2ccnc(Nc3ccccc3)n2)s1 [Compound 2, ethyl 2-(4-(3-(2,6-difluorophenylsulfonamido)-2-fluorophenyl)-5-(2-(phenylamino)pyrimidin-4-yl)thiazol-2-yl)acetate] | < 10 | > 1000 | 10 to 100 | 4 | –
CC(C)(C)c1nc(-c2cccc(NC(=O)C(=O)c3c(F)cccc3F)c2F)c(-c2ccnc(Nc3ccccc3)n2)s1 [Compound 5, N-(3-(2-(tert-butyl)-5-(2-(phenylamino)pyrimidin-4-yl)thiazol-4-yl)-2-fluorophenyl)-2-(2,6-difluorophenyl)-2-oxoacetamide] | 100 to 500 | – | 500 to 5000 | 11 | IC50 (LIMK1(h); Table 8): 500 to 5000 nM
CCCS(=O)(=O)Nc1cccc(-c2nc(C(C)(C)C)sc2-c2ccnc(Nc3ccccc3)n2)c1F [Compound 3, N-(3-(2-(tert-butyl)-5-(2-(phenylamino)pyrimidin-4-yl)thiazol-4-yl)-2-fluorophenyl)propane-1-sulfonamide] | 100 to 500 | < 200 | – | – | –
